Measured values taken from patent US11168083B2, “Inhibitors of Plasma Kallikrein and uses thereof” (Takeda Pharmaceutical Company Limited, priority 2017, dated 2021).

molecular target: human activated kallikrein enzyme (Homo sapiens (Human), UniProt P03952); assay: Inhibition of human activated kallikrein enzyme, fluorogenic peptide substrate assay (two formats); assay type: biochemical; settings: Table 2; column head prints nM, ranges defined in μM; read-out: pKal EC50
Procedure: The example compounds were evaluated for inhibition of the human activated kallikrein enzyme in two formats of an assay employing a fluorogenic peptide substrate. In one assay format, the concentrations of reagents were as follows: 20 mM Tris pH 7.5, 1 mM EDTA, 150 mM sodium chloride, 0.1% PEG-400, 0.1% Triton X-100, 500 pM activated kallikrein enzyme, 300 uM Pro-Phe-Arg-7-amido-4-methylcoumarin substrate. Prior to reaction initiation with substrate, enzyme and inhibitors were preincubated for 30 min at room temperature. After initiation with substrate, reactions were incubated for 10 min at room temperature and fluorescence emission at 460 nm from 380 nm excitation measured with a microplate reader. In another assay format, the concentrations of reagents were as follows: 20 mM Tris pH 7.5, 1 mM EDTA, 150 mM sodium chloride, 0.1% PEG-400, 0.1% Triton X-100, 5 pM activated kallikrein enzyme, 300 uM Pro-Phe-Arg-7-amido-4-methylcoumarin substrate. Prior to reaction initiation with substrate, enzyme and inhibitors were preincubated for 30 min at room temperature. After initiation with substrate, reactions were incubated for 18 hr at room temperature and fluorescence emission at 460 nm from 380 nm excitation measured with a microplate reader.

Sequence of human activated kallikrein enzyme (P03952 391-638): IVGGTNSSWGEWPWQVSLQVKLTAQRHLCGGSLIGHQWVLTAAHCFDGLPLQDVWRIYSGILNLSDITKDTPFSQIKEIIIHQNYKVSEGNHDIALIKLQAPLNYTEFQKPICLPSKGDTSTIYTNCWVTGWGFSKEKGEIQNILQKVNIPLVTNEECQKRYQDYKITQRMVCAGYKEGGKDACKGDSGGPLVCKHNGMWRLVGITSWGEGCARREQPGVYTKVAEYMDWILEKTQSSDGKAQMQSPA
Sequence of human activated kallikrein enzyme (P03952 20-390 partner): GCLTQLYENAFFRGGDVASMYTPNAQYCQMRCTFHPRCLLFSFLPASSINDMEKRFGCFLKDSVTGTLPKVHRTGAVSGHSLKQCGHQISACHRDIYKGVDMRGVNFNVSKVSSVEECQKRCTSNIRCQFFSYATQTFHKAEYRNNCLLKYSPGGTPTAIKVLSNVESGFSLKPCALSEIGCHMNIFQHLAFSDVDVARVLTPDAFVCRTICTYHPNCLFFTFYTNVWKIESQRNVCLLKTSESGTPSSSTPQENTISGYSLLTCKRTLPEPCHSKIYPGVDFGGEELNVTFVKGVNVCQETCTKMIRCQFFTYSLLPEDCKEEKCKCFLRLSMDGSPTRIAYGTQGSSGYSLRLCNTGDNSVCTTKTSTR

SMILES	EC50 [nM]
N[C@@H]1C[C@@H](c2nc(C(=O)NCc3ncn4ccc(Cl)cc34)cs2)N(C(=O)c2cn3cc(Cl)ccc3n2)C1 [Compound 55, 2-((2S,4R)-4-amino-1-(6-chloroimidazo[1,2-a]pyridine-2-carbonyl)pyrrolidin-2-yl)-N-((7-chloroimidazo[1,5-a]pyridin-1-yl)methyl)thiazole-4-carboxamide]	100 to 1000
CNC(=O)[C@H](CCCCNC(=N)N)NC(=O)c1csc([C@@H]2C[C@@H](O)CN2C(=O)c2cn3cc(Cl)ccc3n2)n1 [Compound 38, 2-((2S,4R)-1-(6-Chloroimidazo[1,2-a]pyridine-2-carbonyl)-4-hydroxypyrrolidin-2-yl)-N—((S)-6-guanidino-1-(methylamino)-1-oxohexan-2-yl)thiazole-4-carboxamide]	> 9900
CNC(=O)[C@H](CCCCNC(=N)N)NC(=O)c1csc([C@@H]2C[C@@H](N)CN2C(=O)c2cn3cc(OC)ccc3n2)n1 [Compound 20, 2-((2S,4R)-4-amino-1-(6-methoxyimidazo[1,2-a]pyridine-2-carbonyl)pyrrolidin-2-yl)-N—((S)-6-guanidino-1-(methylamino)-1-oxohexan-2-yl)thiazole-4-carboxamide]	100 to 1000
CNC(=O)[C@H](CCCCNC(=N)N)NC(=O)c1csc([C@@H]2C[C@@H](N)CN2C(=O)c2ccc3ccccc3c2)n1 [Compound 40, 2-((2S,4R)-1-(2-naphthoyl)-4-aminopyrrolidin-2-yl)-N—((S)-6-guanidino-1-(methylamino)-1-oxohexan-2-yl)thiazole-4-carboxamide]	1000 to 5000
Nc1nccc2cc(CNC(=O)c3csc([C@@H]4C[C@@H](N)CN4C(=O)c4cn5cc(Cl)ccc5n4)n3)ccc12 [Compound 49, 2-((2S,4R)-4-amino-1-(6-chloroimidazo[1,2-a]pyridine-2-carbonyl)pyrrolidin-2-yl)-N-((1-aminoisoquinolin-6-yl)methyl)thiazole-4-carboxamide]	≤ 100
CNC(=O)[C@H](CCCCNC(=N)N)NC(=O)c1csc([C@@H]2C[C@@H](N)CN2C(=O)c2cc3ccc(C)cc3s2)n1 [Compound 65, 2-((2S,4R)-4-amino-1-(6-methylbenzo[b]thiophene-2-carbonyl)pyrrolidin-2-yl)-N—((S)-6-guanidino-1-(methylamino)-1-oxohexan-2-yl)thiazole-4-carboxamide]	100 to 1000
CNC(=O)[C@@H](CCCCNC(=N)N)NC(=O)c1csc([C@@H]2C[C@@H](N)CN2C(=O)c2cc3cc(Cl)ccc3s2)n1 [Compound 57, 2-((2S,4R)-4-amino-1-(5-chlorobenzo[b]thiophene-2-carbonyl)pyrrolidin-2-yl)-N—((R)-6-guanidino-1-(methylamino)-1-oxohexan-2-yl)thiazole-4-carboxamide]	1000 to 5000
CNC(=O)[C@H](CCCCNC(=N)N)NC(=O)c1csc([C@H]2CCCN2C(=O)c2cn3cc(Cl)ccc3n2)n1 [Compound 3, 2-((R)-1-(6-Chloroimidazo[1,2-a]pyridine-2-carbonyl)pyrrolidin-2-yl)-N—((S)-6-guanidino-1-(methylamino)-1-oxohexan-2-yl)thiazole-4-carboxamide]	> 9900
CNC(=O)[C@H](CCCCNC(=N)N)NC(=O)c1csc([C@@H]2C[C@@H](N)CN2C(=O)c2cc3cc(Cl)c(Cl)cc3s2)n1 [Compound 61, 2-((2S,4R)-4-amino-1-(5,6-dichlorobenzo[b]thiophene-2-carbonyl)pyrrolidin-2-yl)-N—((S)-6-guanidino-1-(methylamino)-1-oxohexan-2-yl)thiazole-4-carboxamide]	100 to 1000
N[C@@H]1C[C@@H](c2nc(C(=O)NCc3n[nH]c4ccc(Cl)cc34)cs2)N(C(=O)c2cn3cc(Cl)ccc3n2)C1 [Compound 58, 2-((2S,4R)-4-amino-1-(6-chloroimidazo[1,2-a]pyridine-2-carbonyl)pyrrolidin-2-yl)-N-((5-chloro-1H-indazol-3-yl)methyl)thiazole-4-carboxamide]	5000 to 9900
CNC(=O)[C@H](CCCCNC(=N)N)NC(=O)c1csc([C@H]2C[C@@H](O)CN2C(=O)c2cn3cc(Cl)ccc3n2)n1 [Compound 9, 2-((2R,4R)-1-(6-Chloroimidazo[1,2-a]pyridine-2-carbonyl)-4-hydroxypyrrolidin-2-yl)-N—((S)-6-guanidino-1-(methylamino)-1-oxohexan-2-yl)thiazole-4-carboxamide]	> 9900
CNC(=O)[C@H](CCCCNC(=N)N)NC(=O)c1csc([C@@H]2C[C@@H](N)CN2C(=O)c2ccc3ncc(Cl)cc3c2)n1 [Compound 41, 2-((2S,4R)-4-amino-1-(3-chloroquinoline-6-carbonyl)pyrrolidin-2-yl)-N—((S)-6-guanidino-1-(methylamino)-1-oxohexan-2-yl)thiazole-4-carboxamide]	100 to 1000
CNC(=O)[C@H](CCCCNC(=N)N)NC(=O)c1csc([C@H]2C[C@@H](N)CN2C(=O)c2cn3cc(Cl)ccc3n2)n1 [Compound 1, 2-((2R,4R)-4-amino-1-(6-chloroimidazo[1,2-a]pyridine-2-carbonyl)pyrrolidin-2-yl)-N—((S)-6-guanidino-1-(methylamino)-1-oxohexan-2-yl)thiazole-4-carboxamide]	1000 to 5000
CNC(=O)[C@@H](CCCCNC(=N)N)NC(=O)c1csc([C@@H]2C[C@@H](N)CN2C(=O)c2cn3cc(Cl)ccc3n2)n1 [Compound 12, 2-((2S,4R)-4-amino-1-(6-chloroimidazo[1,2-a]pyridine-2-carbonyl)pyrrolidin-2-yl)-N—((R)-6-guanidino-1-(methylamino)-1-oxohexan-2-yl)thiazole-4-carboxamide]	≤ 100
Cc1cc(N)nc(C)c1CNC(=O)c1csc([C@@H]2C[C@@H](N)CN2C(=O)c2cn3cc(Cl)ccc3n2)n1 [Compound 48, 2-((2S,4R)-4-amino-1-(6-chloroimidazo[1,2-a]pyridine-2-carbonyl)pyrrolidin-2-yl)-N-((6-amino-2,4-dimethylpyridin-3-yl)methyl)thiazole-4-carboxamide]	100 to 1000
CNC(=O)[C@H](Cc1ccc(O)cc1)NC(=O)c1csc([C@@H]2C[C@@H](N)CN2C(=O)c2cn3cc(Cl)ccc3n2)n1 [Compound 32, 2-((2S,4R)-4-amino-1-(6-chloroimidazo[1,2-a]pyridine-2-carbonyl)pyrrolidin-2-yl)-N—((S)-3-(4-hydroxyphenyl)-1-(methylamino)-1-oxopropan-2-yl)thiazole-4-carboxamide]	> 9900
N=C(N)NCCCC[C@H](NC(=O)c1csc([C@@H]2C[C@@H](N)CN2C(=O)c2cn3cc(Cl)ccc3n2)n1)C(N)=O [Compound 22, 2-((2S,4R)-4-amino-1-(6-chloroimidazo[1,2-a]pyridine-2-carbonyl)pyrrolidin-2-yl)-N—((S)-1-amino-6-guanidino-1-oxohexan-2-yl)thiazole-4-carboxamide]	≤ 100
CNC(=O)[C@H](CCCCNC(=N)N)NC(=O)c1csc([C@@H]2C[C@@H](N)CN2C(=O)c2cn3cc(I)ccc3n2)n1 [Compound 21, 2-((2S,4R)-4-amino-1-(6-iodoimidazo[1,2-a]pyridine-2-carbonyl)pyrrolidin-2-yl)-N—((S)-6-guanidino-1-(methylamino)-1-oxohexan-2-yl)thiazole-4-carboxamide]	≤ 100
CNC(=O)[C@H](CCCCNC(=N)N)NC(=O)c1csc([C@@H]2C[C@@H](N)CN2C(=O)C(C)C)n1 [Compound 18, 2-((2S,4R)-4-amino-1-isobutyrylpyrrolidin-2-yl)-N—((S)-6-guanidino-1-(methylamino)-1-oxohexan-2-yl)thiazole-4-carboxamide]	> 9900
Cc1cc(N)nc(C)c1CCNC(=O)c1csc([C@@H]2C[C@@H](N)CN2C(=O)c2cn3cc(Cl)ccc3n2)n1 [Compound 52, 2-((2S,4R)-4-amino-1-(6-chloroimidazo[1,2-a]pyridine-2-carbonyl)pyrrolidin-2-yl)-N-(2-(6-amino-2,4-dimethylpyridin-3-yl)ethyl)thiazole-4-carboxamide]	> 9900
CNC(=O)[C@H](CCCCNC(=N)N)NC(=O)c1csc([C@H]2C[C@H](N)CN2C(=O)c2cn3cc(Cl)ccc3n2)n1 [Compound 6, 2-((2R,4S)-4-amino-1-(6-chloroimidazo[1,2-a]pyridine-2-carbonyl)pyrrolidin-2-yl)-N—((S)-6-guanidino-1-(methylamino)-1-oxohexan-2-yl)thiazole-4-carboxamide]	1000 to 5000
CNC(=O)[C@H](CCCCNC(=N)N)NC(=O)c1csc([C@@H]2C[C@@H](N)CN2C(=O)c2cc3cc(Cl)ccc3s2)n1 [Compound 44, 2-((2S,4R)-4-amino-1-(5-chlorobenzo[b]thiophene-2-carbonyl)pyrrolidin-2-yl)-N—((S)-6-guanidino-1-(methylamino)-1-oxohexan-2-yl)thiazole-4-carboxamide]	100 to 1000
CNC(=O)[C@H](CCCCNC(=N)N)NC(=O)c1csc([C@@H]2C[C@@H](N)CN2C(=O)c2nc3cc(Cl)ccc3s2)n1 [Compound 45, 2-((2S,4R)-4-amino-1-(5-chlorobenzo[d]thiazole-2-carbonyl)pyrrolidin-2-yl)-N—((S)-6-guanidino-1-(methylamino)-1-oxohexan-2-yl)thiazole-4-carboxamide]	≤ 100
CNC(=O)[C@H](CCCCNC(=N)N)NC(=O)c1csc([C@@H]2C[C@@H](N)CN2C(=O)c2ccccc2)n1 [Compound 15, 2-((2S,4R)-4-amino-1-benzoylpyrrolidin-2-yl)-N—((S)-6-guanidino-1-(methylamino)-1-oxohexan-2-yl)thiazole-4-carboxamide]	> 9900
